The text below walks through data of patent US10947216B2, “Amide compounds and method for making and using” (Rigel Pharmaceuticals, Inc., priority 2016, dated 2021).

For one test, the system named is IL-23 (p19/p40). Briefly: IL23-p19 ELISA, dendritic cells (DC differentiated from human PBMC, IFNγ primed), LPS stimulated. In kind it is cell-based. To be noted: Dendritic cell, human PBMC-derived dendritic cells, 1 h compound pre-incubation, LPS 1 μg/ml 18 hours, 10 pt. Put shortly:
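PBMC-derived DCs (GM-CSF 100 ng/ml + IL-4 20 ng/ml, 7 days) primed 24 h with IFNγ 50 ng/ml, 50K cells/well; compound pre-incubated 1 h at 37° C, then LPS, 18 h. Supernatant IL-23 by p19-capture/p40-detection chemiluminescent ELISA; cytotoxicity by Cell Titer Glo.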
In general terms: In an ELISA, binding on a coated surface is turned into a signal by an enzyme label.

The subject of a further test is IL-23p19. Briefly: LPS Induced IL23p19 in THP-1 Cells (with IFNγ Primed) Assay. The class given is cell-based, human. To be noted: Homo sapiens, THP-1, THP-1 cells, IFNγ (50 ng/mL) primed, 1 hour compound pre-incubation, LPS 1 ug/mL 18 hours, 10 pt; read-out: IL23-p19 ELISA, THP1-IFNy, LPS, 10 pt EC50. Put shortly: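 THP-1 cells (50K/well) primed ~18 h with IFNγ (50 ng/mL) in RPMI/10% FBS, then incubated with compound in duplicate for 18 h at 37° C. Supernatant IL-23p19 measured by chemiluminescent sandwich ELISA, giving EC50 by curve fitting. Toxicity assessed in parallel on the remaining cells by Cell Titer Glo.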

Where a name gives a salt, the structure may show the parent alone.

As usually defined, the EC50 is the concentration needed to bring the measured effect to its halfway point. For `Cc1ccc(-c2cccc(C(=O)Nc3cn(C)nc3-c3ccccn3)n2)cn1` [Compound I-16, 6′-methyl-N-(1-methyl-3-(pyridin-2-yl)-1H-pyrazol-4-yl)-[2,3′-bipyridine]-6-carboxamide], the EC50 in the test on IL-23 (p19/p40) turned out to be 1200 nM; in the test with IL-23p19, 6350 nM.

Regarding `Cc1cc(-c2cccc(C(=O)Nc3cn(C4COC4)nc3-c3ccccn3)n2)[nH]n1` [Compound I-136, 6-(3-methyl-1H-pyrazol-5-yl)-N-(1-(oxetan-3-yl)-3-(pyridin-2-yl)-1H-pyrazol-4-yl)picolinamide], the values for the EC50 in the test with IL-23 (p19/p40) and in the test on IL-23p19 were 198 nM and 469 nM, respectively.

In the case of `CN1CCN(CCn2cc(NC(=O)c3cccc(-c4cn[nH]c4)n3)c(-c3ccccn3)n2)CC1` [Compound I-86, N-(1-(2-(4-methylpiperazin-1-yl)ethyl)-3-(pyridin-2-yl)-1H-pyrazol-4-yl)-6-(1H-pyrazol-4-yl)picolinamide], the EC50 in the test with IL-23 (p19/p40) was determined as 407 nM; in the test with IL-23p19 it was 98.5 nM.

`Cn1cc(NC(=O)c2cccc(-c3cncc(OC4CCOCC4)c3)n2)c(-c2ccccn2)n1` [Compound I-23, N-(1-methyl-3-(pyridin-2-yl)-1H-pyrazol-4-yl)-5′-((tetrahydro-2H-pyran-4-yl)oxy)-[2,3′-bipyridine]-6-carboxamide]: the EC50 in the test on IL-23 (p19/p40) was 1790 nM; in the test with IL-23p19, 2290 nM.

In the case of `Cn1cc(NC(=O)c2cccc(-c3cn[nH]c3)n2)c(N2CCCCC2)n1` [Compound I-73, N-(1-methyl-3-(piperidin-1-yl)-1H-pyrazol-4-yl)-6-(1H-pyrazol-4-yl)picolinamide], the EC50 in the test on IL-23 (p19/p40) was 2160 nM; in the test on IL-23p19, 1770 nM.

`Cn1cc(NC(=O)c2cccc(-c3cncc(NS(C)(=O)=O)c3)n2)c(-c2ccccn2)n1` [Compound I-34, N-(1-methyl-3-(pyridin-2-yl)-1H-pyrazol-4-yl)-5′-(methylsulfonamido)-[2,3′-bipyridine]-6-carboxamide]: the EC50 with IL-23 (p19/p40) came out at 16100 nM; with IL-23p19 it was 71900 nM.

Turning to `Cn1cc(NC(=O)c2ccnc(-c3cc[nH]n3)n2)c(-c2ccccn2)n1` [Compound I-138, N-(1-methyl-3-(pyridin-2-yl)-1H-pyrazol-4-yl)-2-(1H-pyrazol-3-yl)pyrimidine-4-carboxamide], the EC50 in the test on IL-23 (p19/p40) was found to be 1180 nM; in the test on IL-23p19, 29400 nM.

On to `Cc1cncc(-c2cccc(C(=O)Nc3cn(C)nc3N3CCCCC3)n2)c1` [Compound I-76, 5′-methyl-N-(1-methyl-3-(piperidin-1-yl)-1H-pyrazol-4-yl)-[2,3′-bipyridine]-6-carboxamide], for which the EC50 in the test on IL-23 (p19/p40) was determined as 4320 nM; in the test on IL-23p19, 1930 nM.

Turning to `COc1ccc(-c2nn(C)cc2NC(=O)c2cccc(-c3ccn[nH]3)n2)nc1` [Compound I-67, N-(3-(5-methoxypyridin-2-yl)-1-methyl-1H-pyrazol-4-yl)-6-(1H-pyrazol-5-yl)picolinamide], the EC50 in the test with IL-23 (p19/p40) turned out to be 2680 nM; with IL-23p19, 483 nM.

For the molecule `O=C(Nc1cn(CCO)nc1-c1ccccn1)c1cccc(-c2ccncc2)n1` [Compound I-108, N-(1-(2-hydroxyethyl)-3-(pyridin-2-yl)-1H-pyrazol-4-yl)-[2,4′-bipyridine]-6-carboxamide formate], the results for the EC50 in the test with IL-23 (p19/p40) and with IL-23p19 were 4920 nM and 5960 nM, respectively.

`COCCOCCn1cc(NC(=O)c2cccc(-c3cnn(-c4cccc(Cl)c4)c3)n2)c(-c2ccccn2)n1` [Compound I-148, 6-(1-(3-chiorophenyl)-1H-pyrazol-4-yl)-N-(1-(2-(2-methoxyethoxy)ethyl)-3-(pyridin-2-yl)-1H-pyrazol-4-yl)picolinamide formate]: the EC50 in the test with IL-23 (p19/p40) is 6280 nM; in the test on IL-23p19, 4500 nM.

For `COCCOCCn1cc(NC(=O)c2cccc(Nc3ccc4n[nH]cc4c3)n2)c(-c2ccccn2)n1` [Compound I-155, 6-((2H-indazol-5-yl)amino)-N-(1-(2-(2-methoxyethoxy)ethyl)-3-(pyridin-2-yl)-1H-pyrazol-4-yl)picolinamide formate], the EC50 is 2410 nM in the test on IL-23 (p19/p40) and 6160 nM in the test on IL-23p19.

On to `Cc1cncc(-c2cccc(C(=O)Nc3cn(C4CCOCC4)nc3-c3ccccn3)n2)c1` [Compound I-164, 5′-methyl-N-(3-(pyridin-2-yl)-1-(tetrahydro-2H-pyran-4-yl)-1H-pyrazol-4-yl)-[2,3′-bipyridine]-6-carboxamide], for which the EC50 with IL-23 (p19/p40) was 2890 nM; in the test on IL-23p19 it was 1370 nM.

On to `CN(C)c1cccc(-c2cccc(C(=O)Nc3cn(C)nc3-c3ccccn3)n2)c1` [Compound I-59, 6-(3-(dimethylamino)phenyl)-N-(1-methyl-3-(pyridin-2-yl)-1H-pyrazol-4-yl)picolinamide], for which the values for the 50% effective concentration (EC50) with IL-23 (p19/p40) and in the test on IL-23p19 were 2470 nM and 23900 nM, respectively.

Regarding `CNc1cncc(-c2cccc(C(=O)Nc3cn(C)nc3-c3ccccn3)n2)c1` [Compound I-26, N-(1-methyl-3-(pyridin-2-yl)-1H-pyrazol-4-yl)-5′-(methylamino)-[2,3′-bipyridine]-6-carboxamide], the EC50 in the test on IL-23 (p19/p40) stood at 204 nM; in the test with IL-23p19 it was 2870 nM.

As for `Cn1cc(NC(=O)c2cccc(-c3cncc(NCC4CC4)c3)n2)c(-c2ccccn2)n1` [Compound I-32, 5′-((cyclopropylmethyl)amino)-N-(1-methyl-3-(pyridin-2-yl)-1H-pyrazol-4-yl)-[2,3′-bipyridine]-6-carboxamide], the values for the EC50 in the test on IL-23 (p19/p40) and in the test with IL-23p19 were 7190 nM and 2520 nM, respectively.

As to `O=C(Nc1cn(C2COC2)nc1-c1ccccn1)c1cccc(-c2cccnc2)n1` [Compound I-112, N-(1-(oxetan-3-yl)-3-(pyridin-2-yl)-1H-pyrazol-4-yl)-[2,3′-bipyridine]-6-carboxamide], the figures for the EC50 with IL-23 (p19/p40) and with IL-23p19 were 1280 nM and 325 nM, respectively.

For `COCCCn1cc(NC(=O)c2cccc(-c3cncc(C)c3)n2)c(-c2ccccn2)n1` [Compound I-169, N-(1-(3-methoxypropyl)-3-(pyridin-2-yl)-1H-pyrazol-4-yl)-5′-methyl-[2,3′-bipyridine]-6-carboxamide], the EC50 in the test on IL-23 (p19/p40) is 2420 nM; in the test on IL-23p19 it was 557 nM.

For the molecule `Cn1cc(NC(=O)c2cccc(-c3ccc(N)nc3)n2)c(-c2ccccn2)n1` [Compound I-43, 6′-amino-N-(1-methyl-3-(pyridin-2-yl)-1H-pyrazol-4-yl)-[2,3′-bipyridine]-6-carboxamide], the figures for the EC50 in the test on IL-23 (p19/p40) and in the test with IL-23p19 were 1460 nM and 1320 nM, respectively.

Turning to `NC(=O)c1cncc(-c2cccc(C(=O)Nc3cn(C4COC4)nc3-c3ccccn3)n2)c1` [Compound I-133, N6-(1-(oxetan-3-yl)-3-(pyridin-2-yl)-1H-pyrazol-4-yl)-[2,3′-bipyridine]-5′,6-dicarboxamide], the EC50 in the test on IL-23 (p19/p40) worked out at 6540 nM; in the test on IL-23p19, 11000 nM.

On to `CS(=O)(=O)Nc1cncc(-c2cccc(C(=O)Nc3cn(C4COC4)nc3-c3ccccn3)n2)c1` [Compound I-115, 5′-(methylsulfonamido)-N-(1-(oxetan-3-yl)-3-(pyridin-2-yl)-1H-pyrazol-4-yl)-[2,3′-bipyridine]-6-carboxamide], for which the values for the EC50 in the test with IL-23 (p19/p40) and in the test on IL-23p19 were 7650 nM and 2180 nM, respectively.

With `Cn1cc(NC(=O)c2cccc(-c3cn[nH]c3)n2)c(-c2ccccn2)n1` [Compound I-9, N-(1-methyl-3-(pyridin-2-yl)-1H-pyrazol-4-yl)-6-(1H-pyrazol-4-yl)picolinamide], the EC50 in the test with IL-23 (p19/p40) amounted to 178 nM; in the test with IL-23p19, 281 nM.

`Cc1cncc(-c2cncc(C(=O)Nc3cn(C)nc3-c3ccccn3)n2)c1` [Compound I-121, N-(1-methyl-3-(pyridin-2-yl)-1H-pyrazol-4-yl)-6-(5-methylpyridin-3-yl)pyrazine-2-carboxamide]: the EC50 was 1810 nM in the test with IL-23 (p19/p40) and 1070 nM with IL-23p19.

For the molecule `Cc1cc(-c2cccc(C(=O)Nc3cn(C)nc3-c3ccccn3)n2)[nH]n1` [Compound I-7, 6-(3-methyl-1H-pyrazol-5-yl)-N-(1-methyl-3-(pyridin-2-yl)-1H-pyrazol-4-yl)picolinamide], the EC50 in the test with IL-23 (p19/p40) stood at 354 nM; in the test on IL-23p19 it was 533 nM.

In the case of `Cc1cncc(-c2cccc(C(=O)Nc3cn(C)nc3-c3ccc(N4CCN(C)CC4)cn3)n2)c1` [Compound I-177, 5′-methyl-N-(1-methyl-3-(5-(4-methylpiperazin-1-yl)pyridin-2-yl)-1H-pyrazol-4-yl)-[2,3′-bipyridine]-6-carboxamide dihydrochloride], the EC50 stood at 12200 nM in the test with IL-23 (p19/p40) and 21700 nM in the test with IL-23p19.

As to `O=C(Nc1cn(C2COC2)nc1-c1ccccn1)c1cccc(Br)n1` [Compound I-113, 6-bromo-N-(1-(oxetan-3-yl)-3-(pyridin-2-yl)-1H-pyrazol-4-yl)picolinamide], the EC50 with IL-23 (p19/p40) stood at 10900 nM; in the test with IL-23p19, 8040 nM.

On to `Cn1cc(NC(=O)c2nccc(-c3cn[nH]c3)n2)c(-c2ccccn2)n1` [Compound I-124, N-(1-methyl-3-(pyridin-2-yl)-1H-pyrazol-4-yl)-4-(1H-pyrazol-4-yl)pyrimidine-2-carboxamide], for which the EC50 in the test on IL-23 (p19/p40) was determined as 1540 nM; in the test on IL-23p19, 6640 nM.

Turning to `Cn1cc(-c2cccc(C(=O)Nc3cn(C)nc3-c3ccccn3)n2)cn1` [Compound I-8, 6-(1-methyl-1H-pyrazol-4-yl)-N-(1-methyl-3-(pyridin-2-yl)-1H-pyrazol-4-yl)picolinamide], the EC50 in the test with IL-23 (p19/p40) turned out to be 2420 nM; in the test on IL-23p19 it was 1700 nM.

For `CN1CCN(c2ccc(-c3nn(C)cc3NC(=O)c3cccc(-c4cc[nH]n4)n3)nc2)CC1` [Compound I-175, N-(1-methyl-3-(5-(4-methylpiperazin-1-yl)pyridin-2-yl)-1H-pyrazol-4-yl)-6-(1H-pyrazol-3-yl)picolinamide], the EC50 with IL-23 (p19/p40) stood at 6840 nM; with IL-23p19, 9010 nM.
